“And” between values parts separate entries of the source, which are not always exact repeats. Equal entries are not always repeated. Structures can show the parent of a compound that is named as a salt. Where two headings read alike, the source gives them in different places. Marks after values point to notes of the source that are not given here.
Assays:
[1] = system: Adenovirus type 165089/Chicago (A-549 cells); conditions: human
[2] = system: Yellow Fever 17D (Vero 76 cells); assay: microbe, parasite or virus in culture
[3] = system: Rhinovirus 2 HGP (HeLa Ohio-1 cells); conditions: human
A/Vic/3/75 (H3N2) = assay: microbe, parasite or virus in culture; format: cell-based; conditions: Influenza A virus
[4] = system: H3N2 virus (A/Victoria/3/75); design: species or system BALB/c mice; conditions: mouse, in vivo
[5] = system: Adenovirus type 165089/Chicago (A-549 cells); conditions: human; remark: listed apart in the source
[6] = system: Punta Toro A2 (Vero 76 cells); assay: microbe, parasite or virus in culture
[7] = system: Punta Toro A2 (Vero 76 cells); assay: microbe, parasite or virus in culture; remark: listed apart in the source
[8] = system: SARS-CoV Urbani (Vero 76 cells); conditions: African green monkey
[9] = system: Influenza A H1N1 CA/04/2009 (Pandemic HIN1)
[10] = system: Yellow Fever 17D (Vero 76 cells); assay: microbe, parasite or virus in culture; remark: listed apart in the source
in vitro [11] = conditions: African green monkey
[12] = system: Respiratory Syncytial A2 (MA-104 cells); assay: microbe, parasite or virus in culture; conditions: human respiratory syncytial virus, MA104
[13] = system: Rhinovirus 2 HGP (HeLa Ohio-1 cells); assay: microbe, parasite or virus in culture; conditions: Enterovirus, HeLa Ohio1
[14] = system: Respiratory Syncytial A2 (MA-104 cells); assay: microbe, parasite or virus in culture; conditions: human respiratory syncytial virus, MA104; remark: listed apart in the source
[15] = system: H3N2 virus (A/Victoria/3/75); design: species or system BALB/c mice; conditions: mouse, in vivo; remark: listed apart in the source
[16] = system: Influenza A H1N1 CA/04/2009 (Pandemic HIN1); remark: listed apart in the source
[17] = system: Rhinovirus 2 HGP (HeLa Ohio-1 cells); assay: microbe, parasite or virus in culture; conditions: Enterovirus, HeLa Ohio1; remark: listed apart in the source
in vitro [18] = conditions: African green monkey; remark: listed apart in the source
West Nile (Vero Cells) = conditions: African green monkey
[19] = rat, in vivo, po; for AUC(0-inf) / Cmax / Tmax: male, Sprague-Dawley
[20] = system: Yellow fever virus (Jimenez strain); format: in vivo, Syrian golden hamsters; conditions: 100 mg/kg

Cl.Cl.Nc1ncnc2c([C@@H]3N[C@H](CO)[C@@H](O)[C@H]3O)c[nH]c12 [compound 12i, (2S,3S,4R,5R)-2-(4-amino-5H-pyrrolo[3,2-d]pyrimidin-7-yl)-5-(hydroxymethyl)pyrrolidine-3,4-diol dihydrochloride]
IC50 (50% cytotoxic dose) [1]: >0.1 mg/L | EC50 [2]: 8.3 mg/L | IC50 (50% cytotoxic dose) [3]: >0.1 mg/L | EC50 (A/Vic/3/75 (H3N2)): 4 mg/L | Survival/Total [4]: 10/10* | Mean day to death (Mean ± SEM) ([4]; po): >16 days | Mean weight change (grams ± SEM) Day 9 ([4]; po): 0.01 + 0.27** grams | Survival/Total ([4]; po): 10/10* | IC50 (50% cytotoxic dose) [5]: >0.1 mg/L | EC50 [6]: 310 mg/L | EC50 [7]: > 250 mg/L | IC50 (50% cytotoxic dose) [8]: >0.1 mg/L | IC50 (50% cytotoxic dose) [9]: 0.21 mg/L | EC50 [10]: 8.3 mg/L | IC50 (in vitro [11]): > 100 mg/L | EC50 [12]: > 100 mg/L | EC50 (Influenza B Florida): 1.8 mg/L | EC50 [13]: 56 mg/L | EC50 [14]: > 100 mg/L | Mean day to death (Mean ± SEM) [15]: >16 days | IC50 (50% cytotoxic dose) [16]: 0.21 mg/L | EC50 [17]: 57 mg/L | IC50 (in vitro [18]): > 100 mg/L | IC50 (50% cytotoxic dose) (West Nile (Vero Cells)): >0.1 mg/L | AUC(0-inf) ([19]; 10 mg/kg): 219 ng·h | Cmax ([19]; 10 mg/kg): 0.123 µg/mL | Tmax ([19]; 10 mg/kg): 30 min | Survival rate ([20]; 21 days): 100% | weight ([20]; hamster, in vivo, ip): weight gain over placebo and ribavirin | Survival rate ([20]; hamster, in vivo, ip, dihydrochloride): 100% and 80%

CC(C)[C@H](N)C(=O)OC[C@H]1N[C@@H](c2c[nH]c3c(N)ncnc23)[C@H](O)[C@@H]1O [compound 30f, (S)-((2R,3R,4S,5S)-5-(4-amino-5H-pyrrolo[3,2-d]pyrimidin-7-yl)-3,4-dihydroxypyrrolidin-2-yl)methyl 2-amino-3-methylbutanoate Hydrochloride]
AUC(0-inf) ([19]; 10 mg/kg): 1076 ng·h | Cmax ([19]; 10 mg/kg): 0.527 µg/mL | Tmax ([19]; 10 mg/kg): 30 min | hydrolysis by plasma esterases to compound 12i [19]: rapidly hydrolyze | bioavailability relative to compound 12i ([19]; 10 mg/kg): approximately four-fold
